From article PMC5766609 (Scientific Reports, 2018) come the findings set out here.

Residues, ends and D or L forms follow the SMILES beside them.

Test [1] addresses T1, human GLP-1 receptor (GLP1R) (Homo sapiens, UniProt P43220).
T1 construct: expressed in transfected cells; host or cells: CHO-JumpIn cells, stably transfected
The experiment in a line: cAMP assay on CHO-JumpIn cells stably transfected with human GLP-1 receptor (HitHunter cAMP).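 Further: peptides tested as 4-fold serial dilution series, cells exposed 1 hr at RT in the dark, cAMP quantified against a cAMP standard calibration curve.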 The following applies: Table 2, cAMP accumulation, buffer PBS, 0.1% BSA, 100 μM RO 20-1724, 20% serum, 1 hr at RT, value ± spread, read-out: EC50 GLP1R. It is filed as cell-based.
Description: Briefly, a 2 μM solution of peptide was prepared, and 4-fold serial dilutions were made. 150 nL of the above titration was then dispensed into an Optiplate384 using an Echo555. […] The HitHunter® cAMP Assay kit calibration curve was prepared following the manufacturer’s protocol (DiscoveRx-90-0075L). 30,000 cells/well were added to the peptides, spun briefly at 500 rpm for 15 s and incubated at RT in the dark for 1 hr. The assay was developed as per the manufacturer’s instructions. cAMP accumulation due to GLP1R agonism or GCGR agonism was measured using an EnVision platereader (PerkinElmer), and calibrated using the cAMP standard curve. Data were analyzed using Assay Data Analyzer (ADA).

The target in test [2] is T2, human glucagon receptor (GCGR) (Homo sapiens, UniProt P47871).
T2 construct: expressed in transfected cells; host or cells: CHO-JumpIn cells, stably transfected
The experiment in a line: cAMP assay on CHO-JumpIn cells stably transfected with human glucagon receptor (HitHunter cAMP).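 On all read-outs here: peptides tested as 4-fold serial dilutions starting from a 2 µM solution, cells exposed 1 hr at RT in darkness, cAMP quantified against a cAMP standard curve.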 It is filed as cell-based. The following applies: for EC50: Table 2, cAMP accumulation, CHO-JumpIn cells with human GCGR, buffer PBS, 0.1% BSA, 100 μM RO 20-1724, 20% serum, 1 hr at RT, value ± spread, read-out: EC50 GCGR.

T1 sequence (P43220 24-463): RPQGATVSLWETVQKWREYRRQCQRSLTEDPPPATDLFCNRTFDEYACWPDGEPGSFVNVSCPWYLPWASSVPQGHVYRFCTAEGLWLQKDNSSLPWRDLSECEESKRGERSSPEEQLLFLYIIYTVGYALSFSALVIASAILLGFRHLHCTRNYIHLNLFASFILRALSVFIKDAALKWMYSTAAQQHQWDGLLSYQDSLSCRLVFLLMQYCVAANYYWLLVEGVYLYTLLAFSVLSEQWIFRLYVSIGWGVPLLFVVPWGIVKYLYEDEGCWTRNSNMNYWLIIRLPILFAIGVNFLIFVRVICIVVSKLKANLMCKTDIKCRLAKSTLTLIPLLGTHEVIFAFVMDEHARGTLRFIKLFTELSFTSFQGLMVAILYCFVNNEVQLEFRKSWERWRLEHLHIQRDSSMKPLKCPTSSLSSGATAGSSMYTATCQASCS
T2 sequence (P47871 26-477): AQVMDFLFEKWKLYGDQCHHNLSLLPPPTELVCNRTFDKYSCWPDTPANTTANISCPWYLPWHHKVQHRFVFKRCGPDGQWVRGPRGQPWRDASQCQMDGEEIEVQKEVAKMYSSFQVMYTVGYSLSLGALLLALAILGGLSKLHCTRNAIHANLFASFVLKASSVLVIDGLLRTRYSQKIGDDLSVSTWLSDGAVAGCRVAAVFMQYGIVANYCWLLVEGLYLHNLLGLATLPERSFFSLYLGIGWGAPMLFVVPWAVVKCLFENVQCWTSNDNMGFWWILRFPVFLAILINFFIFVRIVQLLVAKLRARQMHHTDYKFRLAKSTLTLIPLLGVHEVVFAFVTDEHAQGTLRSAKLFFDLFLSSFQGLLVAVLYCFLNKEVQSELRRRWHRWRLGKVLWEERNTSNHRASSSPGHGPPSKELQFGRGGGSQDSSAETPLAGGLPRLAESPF

With `CSCC[C@H](NC(=O)[C@H](CO)NC(=O)[C@H](C)N)C(=O)N[C@@H](Cc1ccccc1)C(=O)N[C@H](C(=O)N[C@@H](Cc1ccccc1)C(=O)N[C@@H](Cc1ccccc1)C(=O)N[C@@H](CO)C(=O)N[C@@H](CC(=O)O)C(=O)N[C@@H](Cc1ccc(O)cc1)C(=O)N[C@@H](CO)C(=O)N[C@@H](CCCCN)C(=O)N[C@@H](Cc1ccc(O)cc1)C(=O)N[C@@H](CC(C)C)C(=O)N[C@@H](CC(=O)O)C(=O)N[C@@H](CO)C(=O)N[C@@H](CCCNC(=N)N)C(=O)N[C@@H](CCCNC(=N)N)C(=O)N[C@@H](C)C(=O)N[C@@H](CCC(N)=O)C(=O)N[C@@H](CC(=O)O)C(=O)N[C@@H](Cc1ccccc1)C(=O)N[C@H](C(=O)N[C@@H](CCC(N)=O)C(=O)N[C@@H](Cc1c[nH]c2ccccc12)C(=O)N[C@@H](CC(C)C)C(=O)N[C@@H](CCSC)C(=O)N[C@@H](CC(C)C)C(=O)N[C@H](C(N)=O)[C@@H](C)O)C(C)C)[C@@H](C)O` [Peptide 15] (H-ASMFTFFSDYSKYLDSRRAQDFVQWLMLT-NH2; N-terminus assumed), the EC50 was more than 200 nM in test [1] and more than 20 nM in test [2]. Moreover, in test [2] (both receptors (GCGR and GLP1R) not activated), the “activation of the receptors (in words)” value is on record as “did not activate”.

With `CC[C@H](C)[C@H](NC(=O)CNC(=O)[C@H](CCC(N)=O)NC(=O)[C@H](CO)NC(=O)[C@@H](N)Cc1c[nH]cn1)C(=O)N[C@@H](Cc1ccccc1)C(=O)N[C@@H](Cc1ccccc1)C(=O)N[C@@H](CO)C(=O)N[C@@H](CC(=O)O)C(=O)N[C@@H](Cc1ccc(O)cc1)C(=O)N[C@@H](CO)C(=O)N[C@@H](CCCCN)C(=O)N[C@@H](Cc1ccc(O)cc1)C(=O)N[C@@H](CC(C)C)C(=O)N[C@@H](CC(=O)O)C(=O)N[C@@H](CO)C(=O)N[C@@H](CCCNC(=N)N)C(=O)N[C@@H](CCCNC(=N)N)C(=O)N[C@@H](C)C(=O)N[C@@H](CCC(N)=O)C(=O)N[C@@H](CC(=O)O)C(=O)N[C@@H](Cc1ccccc1)C(=O)N[C@H](C(=O)N[C@@H](CCC(N)=O)C(=O)N[C@@H](Cc1c[nH]c2ccccc12)C(=O)N[C@@H](CC(C)C)C(=O)N[C@@H](CCSC)C(=O)N[C@@H](CC(N)=O)C(=O)N[C@H](C(N)=O)[C@@H](C)O)C(C)C` [Peptide 30] (H-HSQGIFFSDYSKYLDSRRAQDFVQWLMNT-NH2), the figures for the EC50 in test [1] and in test [2] were more than 200 nM and 0.026 ± 0.004 nM, respectively.

On to `CSCC[C@H](NC(=O)[C@H](CC(C)C)NC(=O)[C@H](Cc1c[nH]c2ccccc12)NC(=O)[C@H](CCC(N)=O)NC(=O)[C@@H](NC(=O)[C@H](Cc1ccccc1)NC(=O)[C@H](CC(=O)O)NC(=O)[C@H](CCC(N)=O)NC(=O)[C@H](C)NC(=O)[C@H](CCCNC(=N)N)NC(=O)[C@H](CCCNC(=N)N)NC(=O)[C@H](CO)NC(=O)[C@H](CC(=O)O)NC(=O)[C@H](CC(C)C)NC(=O)[C@H](Cc1ccc(O)cc1)NC(=O)[C@H](CCCCN)NC(=O)[C@H](CO)NC(=O)[C@H](Cc1ccc(O)cc1)NC(=O)[C@H](CC(=O)O)NC(=O)[C@H](CO)NC(=O)[C@@H](NC(=O)[C@H](Cc1ccccc1)NC(=O)[C@@H](NC(=O)[C@H](Cc1ccccc1)NC(=O)[C@H](CCC(N)=O)NC(=O)CNC(=O)[C@H](CC(C)C)NC(=O)[C@H](C)NC(=O)[C@@H](N)CCCCN)[C@@H](C)O)[C@@H](C)O)C(C)C)C(=O)N[C@@H](CC(N)=O)C(=O)N[C@H](C(N)=O)[C@@H](C)O` [Peptide 21] (H-KALGQFTFTSDYSKYLDSRRAQDFVQWLMNT-NH2), for which the concentration giving a half-maximal response (EC50) in test [1] amounted to 14.8 ± 11.4 nM; in test [2], 4.18 ± 1.13 nM.

In the case of `CC(C)C[C@H](NC(=O)[C@H](Cc1ccc(O)cc1)NC(=O)[C@H](CCCCN)NC(=O)[C@H](CO)NC(=O)[C@H](Cc1ccc(O)cc1)NC(=O)[C@H](CC(=O)O)NC(=O)[C@H](CO)NC(=O)[C@@H](NC(=O)[C@H](Cc1ccccc1)NC(=O)[C@@H](NC(=O)CNC(=O)[C@H](CCC(N)=O)NC(=O)[C@H](CO)NC(=O)[C@@H](N)Cc1c[nH]cn1)[C@@H](C)O)[C@@H](C)O)C(=O)N[C@@H](CC(=O)O)C(=O)N[C@@H](Cc1c[nH]c2ccccc12)C(=O)N[C@@H](CCCNC(=N)N)C(=O)N[C@@H](CCCNC(=N)N)C(=O)N[C@@H](C)C(=O)N[C@@H](CCC(N)=O)C(=O)N[C@@H](CC(=O)O)C(=O)N[C@@H](Cc1ccccc1)C(=O)N[C@H](C(=O)N[C@@H](CCC(N)=O)C(=O)N[C@@H](Cc1c[nH]c2ccccc12)C(=O)N[C@@H](CC(C)C)C(=O)N[C@@H](CCC(N)=O)C(=O)N[C@@H](CC(N)=O)C(=O)N[C@H](C(N)=O)[C@@H](C)O)C(C)C` [Peptide 23], the concentration giving a half-maximal response (EC50) in test [1] worked out at 0.017 ± 0.001 nM; in test [2], 0.019 ± 0.001 nM.

As for `CC(C)C[C@H](NC(=O)[C@H](Cc1ccc(O)cc1)NC(=O)[C@H](CCCCN)NC(=O)[C@H](CO)NC(=O)[C@H](Cc1ccc(O)cc1)NC(=O)[C@H](CC(=O)O)NC(=O)[C@H](CO)NC(=O)[C@@H](NC(=O)[C@H](Cc1ccccc1)NC(=O)[C@@H](NC(=O)CNC(=O)[C@H](CCC(N)=O)NC(=O)[C@H](CO)NC(=O)[C@@H](N)Cc1c[nH]cn1)[C@@H](C)O)[C@@H](C)O)C(=O)N[C@@H](CC(=O)O)C(=O)N[C@@H](CO)C(=O)N[C@@H](CCCCN)C(=O)N[C@@H](CCCNC(=N)N)C(=O)N[C@@H](C)C(=O)N[C@@H](Cc1c[nH]cn1)C(=O)N[C@@H](CC(=O)O)C(=O)N[C@@H](Cc1ccccc1)C(=O)N[C@H](C(=O)N[C@@H](CCC(N)=O)C(=O)N[C@@H](Cc1c[nH]c2ccccc12)C(=O)N[C@@H](CC(C)C)C(=O)N[C@@H](CC(C)C)C(=O)N[C@@H](CC(N)=O)C(=O)N[C@H](C(N)=O)[C@@H](C)O)C(C)C` [Peptide 24] (H-HSQGTFTSDYSKYLDSKRAHDFVQWLLNT-NH2), the EC50 in test [1] came to 0.018 ± 0.001 nM; in test [2], 0.026 ± 0.001 nM.

Take `CC[C@H](C)[C@H](NC(=O)[C@H](CC(C)C)NC(=O)[C@H](Cc1c[nH]c2ccccc12)NC(=O)[C@H](CC(=O)O)NC(=O)[C@@H](NC(=O)[C@H](Cc1ccccc1)NC(=O)[C@H](CC(=O)O)NC(=O)[C@H](CCC(N)=O)NC(=O)[C@H](C)NC(=O)[C@H](CCCNC(=N)N)NC(=O)[C@H](CCCNC(=N)N)NC(=O)[C@H](CO)NC(=O)[C@H](CC(=O)O)NC(=O)[C@H](CC(C)C)NC(=O)[C@H](Cc1ccc(O)cc1)NC(=O)[C@H](CCCCN)NC(=O)[C@H](CO)NC(=O)[C@H](Cc1ccc(O)cc1)NC(=O)[C@H](CC(=O)O)NC(=O)[C@H](CO)NC(=O)[C@@H](NC(=O)[C@H](Cc1ccccc1)NC(=O)[C@@H](NC(=O)CNC(=O)[C@H](CCC(N)=O)NC(=O)[C@H](CO)NC(=O)[C@@H](N)Cc1c[nH]cn1)[C@@H](C)O)[C@@H](C)O)C(C)C)C(=O)N[C@@H](CC(N)=O)C(=O)N[C@@H](CO)C(N)=O` [Peptide 28]: the EC50 stood at 0.007 ± 0.001 nM in test [1] and 0.016 ± 0.001 nM in test [2].

Regarding `CSCC[C@H](NC(=O)[C@H](CC(C)C)NC(=O)[C@H](Cc1c[nH]c2ccccc12)NC(=O)[C@H](CCC(N)=O)NC(=O)[C@@H](NC(=O)[C@H](Cc1ccccc1)NC(=O)[C@H](CC(=O)O)NC(=O)[C@H](CCC(N)=O)NC(=O)[C@H](C)NC(=O)[C@H](CCCNC(=N)N)NC(=O)[C@H](CCCNC(=N)N)NC(=O)[C@H](CO)NC(=O)[C@H](CC(=O)O)NC(=O)[C@H](CC(C)C)NC(=O)[C@H](Cc1ccc(O)cc1)NC(=O)[C@H](CCCCN)NC(=O)[C@H](CO)NC(=O)[C@H](Cc1ccc(O)cc1)NC(=O)[C@H](CC(=O)O)NC(=O)[C@H](CO)NC(=O)[C@H](Cc1c[nH]c2ccccc12)NC(=O)[C@H](Cc1ccccc1)NC(=O)[C@H](CC(N)=O)NC(=O)CNC(=O)[C@@H](NC(=O)[C@H](CO)NC(=O)[C@@H](N)Cc1c[nH]cn1)C(C)C)C(C)C)C(=O)N[C@@H](CC(C)C)C(=O)N[C@H](C(N)=O)[C@@H](C)O` [Peptide 1] (H-HSVGNFWSDYSKYLDSRRAQDFVQWLMLT-NH2), the EC50 in test [1] was found to be 16.7 ± 10.3 nM; in test [2] it was 8.45 ± 2.67 nM.

As to `CSCC[C@H](NC(=O)[C@H](CC(C)C)NC(=O)[C@H](Cc1c[nH]c2ccccc12)NC(=O)[C@H](CCC(N)=O)NC(=O)[C@@H](NC(=O)[C@H](Cc1ccccc1)NC(=O)[C@H](CC(=O)O)NC(=O)[C@H](Cc1ccc(O)cc1)NC(=O)[C@H](C)NC(=O)[C@H](CCCNC(=N)N)NC(=O)[C@H](CC(C)C)NC(=O)[C@H](CCC(=O)O)NC(=O)[C@H](CC(=O)O)NC(=O)[C@H](CC(C)C)NC(=O)[C@H](Cc1ccc(O)cc1)NC(=O)[C@H](CCCCN)NC(=O)[C@H](CO)NC(=O)[C@H](Cc1ccc(O)cc1)NC(=O)[C@H](CC(=O)O)NC(=O)[C@H](CO)NC(=O)[C@@H](NC(=O)[C@H](Cc1ccccc1)NC(=O)[C@@H](NC(=O)CNC(=O)[C@H](CCC(N)=O)NC(=O)[C@H](CO)NC(=O)[C@@H](N)Cc1c[nH]cn1)[C@@H](C)O)[C@@H](C)O)C(C)C)C(=O)N[C@@H](CC(N)=O)C(=O)N[C@H](C(N)=O)[C@@H](C)O` [Peptide 10] (H-HSQGTFTSDYSKYLDELRAYDFVQWLMNT-NH2), the figures for the concentration for a half-maximal effect (EC50) in test [1] and in test [2] were 0.038 ± 0.009 nM and 0.057 ± 0.021 nM, respectively.

In the case of `CSCC[C@H](NC(=O)[C@H](CC(C)C)NC(=O)[C@H](Cc1c[nH]c2ccccc12)NC(=O)[C@H](CCC(N)=O)NC(=O)[C@@H](NC(=O)[C@H](Cc1ccccc1)NC(=O)[C@H](CC(=O)O)NC(=O)[C@H](CCC(N)=O)NC(=O)[C@H](C)NC(=O)[C@H](CCCNC(=N)N)NC(=O)[C@H](CCCNC(=N)N)NC(=O)[C@H](CO)NC(=O)[C@H](CC(=O)O)NC(=O)[C@H](CC(C)C)NC(=O)[C@H](Cc1ccc(O)cc1)NC(=O)[C@H](Cc1ccc(O)cc1)NC(=O)[C@H](Cc1ccc(O)cc1)NC(=O)[C@H](Cc1ccc(O)cc1)NC(=O)[C@H](CC(=O)O)NC(=O)[C@H](Cc1c[nH]cn1)NC(=O)[C@H](CC(C)C)NC(=O)[C@H](Cc1ccccc1)NC(=O)[C@@H](NC(=O)CNC(=O)[C@H](CCC(N)=O)NC(=O)[C@H](CO)NC(=O)[C@@H](N)Cc1c[nH]cn1)[C@@H](C)O)C(C)C)C(=O)N[C@@H](CC(=O)O)C(=O)N[C@H](C(N)=O)[C@@H](C)O` [Peptide 17] (H-HSQGTFLHDYYYYLDSRRAQDFVQWLMDT-NH2), the concentration for a half-maximal effect (EC50) is more than 200 nM in test [1] and 0.527 ± 0.315 nM in test [2].
